In this experiment the test system is passive cutaneous anaphylaxis (PCA) reaction. In words: passive cutaneous anaphylaxis (PCA) test, i.v. or oral administration. It is filed as in vivo, male Charles River Wistar rats. The note with it: Rattus norvegicus, read-out: degree (%) of protection, PCA test. Here is the method: In the PCA test, normal animals are injected intradermally (i.d.) with antibodies contained in serum obtained from actively sensitized animals. The animals are then challenged intravenously with antigen mixed with a dye such as Evans' Blue. The increased capillary-permeability caused by the antigen-antibody reaction causes the dye to leak from the site of the antibody injection. The test animals are then asphyxiated and the intensity of the reaction determined by measuring the diameter and intensity of the blue coloration on the inner surface of the animals skin. […] The ability of agents to interfere with PCA reactions is measured in male Charles River Wistar rats, 170-210 g. […] Hyperimmune antisera to hen egg albumin is prepared according to Orange, et al., J. Exptl. […] Forty-eight hours prior to antigen challenge the reaginic antisera is injected intradermally (i.d.) into the shaved skin of a normal rat's back; 5 hours before challenge the hyperimmune antisera is similarly injected; 5 hours later, at a third site, 60 mcg. histamine dihydrochloride is injected i.d. as a check for antihistaminic and unspecific types of blockage; the compounds of the instant invention or saline are then administered i.v. and immediately followed by 2.5 mg. Evan's blue dye and 5 mg. egg albumin in saline. In the case of oral administration Evan's blue dye and egg albumen are given five minutes after administration of the drug. Thirty minutes later the animals are asphyxiated using chloroform and the skin of the back removed and reversed for observation. A score is assigned each injection site equal to the product of the diameter of the site in mm. and a grade of 0.1, 0.5, 1, 2, 3 or 4 proportional to intensity of dye coloration. The scores for a given injection site are summed for each group of 8 animals and compared to the saline treated controls. The difference is expressed as percent blockade due to the compound employed. […] Disodium cromoglycate, a commerial antiallergy agent, is included for comparison. [drawing 3]

Like-named read-outs stand apart in the source and are kept apart here.

Regarding `CCOC(=O)c1nc2nc3c(OC)c(OC)ccc3cc2c(=O)[nH]1` [COOC2 H5/H/H/H/OCH3/OCH3, Ethyl 8,9-Dimethoxypyrimido[4,5-b]-Quinolin-4(3H)-One-2-Carboxylate], under “iv, I.V.”, the inhibition in vivo at 0.3 mg/kg was 39% and the inhibition in vivo at 3 mg/kg amounted to 100%. In addition, the inhibition in vivo at 10 mg/kg (Oral) came out at 0%. The inhibition in vivo at 60 mg/kg (Oral, 60 mg/kg) is 26%.
On to `CCCCOc1cc2nc3nc(C(=O)OCC)[nH]c(=O)c3cc2cc1OCC` [COOC2 H5/H/H/OC2 H5/O-(n-C4 H9)/H], for which, for the setting “iv, I.V.”, the inhibition in vivo at 0.03 mg/kg was 0%, the inhibition in vivo at 0.1 mg/kg amounted to 28%, the inhibition in vivo at 0.3 mg/kg worked out at 44% and the inhibition in vivo at 1 mg/kg was found to be 95%. Moreover, under “iv, I.V.”, the inhibition in vivo at 3 mg/kg is 90%. Moreover, for the setting “Oral”, the inhibition in vivo at 1 mg/kg stood at 3%, the inhibition in vivo at 3 mg/kg came out at 43% and the inhibition in vivo at 10 mg/kg worked out at 67%.
For `CCOC(=O)c1nc2nc3cc(OCC)c(OCC)cc3cc2c(=O)[nH]1` [COOC2 H5/H/H/OC2 H5/OC2 H5/H], under “iv, I.V.”, the inhibition in vivo at 0.003 mg/kg was 21%, the inhibition in vivo at 0.01 mg/kg was found to be 43%, the inhibition in vivo at 0.03 mg/kg amounted to 60% and the inhibition in vivo at 0.1 mg/kg is 90%. Further, where the note is “iv, I.V.”, the inhibition in vivo at 3 mg/kg was found to be 100%. For the same compound, for the setting “Oral”, the inhibition in vivo at 0.3 mg/kg came out at 42%, the inhibition in vivo at 1 mg/kg was 40%, the inhibition in vivo at 3 mg/kg worked out at 64% and the inhibition in vivo at 10 mg/kg is 81%.
With `CCOC(=O)c1nc2nc3cc(OCc4ccccc4)c(OCC)cc3cc2c(=O)[nH]1` [COOC2 H5/H/H/OC2 H5/OC7 H7/H], under “iv, I.V.”, the inhibition in vivo at 0.1 mg/kg was found to be 3%, the inhibition in vivo at 0.3 mg/kg is 30% and the inhibition in vivo at 3 mg/kg worked out at 71%. Where the note is “Oral”, the inhibition in vivo at 10 mg/kg amounted to 0% and the inhibition in vivo at 30 mg/kg was 0%.
For the compound `CCOC(=O)c1nc2nc3cc(OC)c(OCC)cc3cc2c(=O)[nH]1` [COOC2 H5/H/H/OC2 H5/OCH3/H], for the setting “iv, I.V.”, the inhibition in vivo at 0.003 mg/kg was determined as 50%, the inhibition in vivo at 0.01 mg/kg was 72%, the inhibition in vivo at 0.03 mg/kg stood at 85% and the inhibition in vivo at 0.1 mg/kg turned out to be 99%. Under “iv, I.V.”, the inhibition in vivo at 3 mg/kg was found to be 100%. For the same compound, where the note is “Oral”, the inhibition in vivo at 0.3 mg/kg was 56%, the inhibition in vivo at 1 mg/kg is 76%, the inhibition in vivo at 3 mg/kg stood at 83% and the inhibition in vivo at 10 mg/kg turned out to be 92%.
Regarding `CCOC(=O)c1nc2nc3ccc(OCc4ccccc4)cc3cc2c(=O)[nH]1` [COOC2 H5/H/H/OC7 H7/H/H, ethyl 7-benzyloxypyrimido-[4,5-b]quinolin-4(3H) one-2-carboxylate], for the setting “iv, I.V.”, the inhibition in vivo at 0.3 mg/kg came to 23% and the inhibition in vivo at 3 mg/kg came out at 85%. Moreover, where the note is “Oral”, the inhibition in vivo at 3 mg/kg was found to be 3% and the inhibition in vivo at 10 mg/kg was 60%.
For `CCOC(=O)c1nc2nc3ccc(OC)cc3cc2c(=O)[nH]1` [COOC2 H5/H/H/OCH3/H/H, Ethyl 7-Methoxypyrimido[4,5-b]-Quinolin-4(3H)-One-2-Carboxylate], where the note is “iv, I.V.”, the inhibition in vivo at 0.1 mg/kg was 68%, the inhibition in vivo at 0.3 mg/kg is 87% and the inhibition in vivo at 3 mg/kg was determined as 100%. Where the note is “Oral”, the inhibition in vivo at 3 mg/kg was 32% and the inhibition in vivo at 10 mg/kg is 43%.
On to `CCOC(=O)c1nc2nc3c(OC)cc(OC)cc3cc2c(=O)[nH]1` [COOC2 H5/H/H/OCH3/H/OCH3], for which, under “iv, I.V.”, the inhibition in vivo at 0.03 mg/kg is 14%, the inhibition in vivo at 0.3 mg/kg stood at 38% and the inhibition in vivo at 3 mg/kg was 97%. Under “Oral”, the inhibition in vivo at 30 mg/kg is 41%.

(Values after patent US4044134A, “Fused pyrimidin-4(3H)-ones as antiallergy agents” (Pfizer Inc., priority 1976, dated 1977).)
